The values below come from patent US20230248723A1, “PYRROLO[2,3-B]PYRAZINE COMPOUNDS AS CCCDNA INHIBITORS FOR THE TREATMENT OF HEPATITIS B VIRUS (HBV) INFECTION” (Hoffmann-La Roche Inc., priority 2017, published 2023).

pIC50: −log10 of the molar value. Like-named read-outs stand apart in the source and are kept apart here.

One test relates to HBV DNA. The test is described as follows: HBV DNA in culture medium of HBV-infected PHH. It is filed as cell-based. As to conditions: Hepatitis B virus; for IC50: 240 h. An excerpt: FIG. 8: Establishment of dPCR assay for cccDNA quantification. […] A 3.2-kb, linearized plasmid HBV is used as a standard curve for relative quantification of HBV DNA by TaqMan-PCR. […] (B) Testing primer & PCR specificity and removal of excess RC-DNA. In contrast to TaqMan-PCR (relative quantification method), digital PCR (dPCR) is an absolute quantification method without the need of standard curve. […] First step—Testing primer and PCR specificity. Serum-derived HBV (contains RC-DNA, devoid of cccDNA) was used as a DNA template for dPCR using 2 sets of primers (for HBV core and cccDNA region) (Werle-Lapostolle et al., 2004). Samples were amplified by dPCR on QuantStudio 12K Flex Real-Time PCR System (AB); 4 subarrays (256 through-holes) were used for each sample. […] Second step—Removal of excess RC-DNA. PHH seeded in 96-well were infected with HBV. At day 6 pi, cell lysates were digested with Plasmid safe, ATP-dependent, DNAse (PSAD), T5 exonuclease, or, T5 exonuclease followed by EcoRI, for 1 hr at 37° C. Samples were amplified by dPCR using cccDNA primers on QuantStudio 12K Flex Real-Time PCR System (AB); 4 subarrays (256 through-holes) were used for each sample. […] Fresh medium and compound was replenished every 2 day. At day 10 pi, culture media were harvested and measured for HBV DNA, HBsAg, and HBeAg. Albumin was used as a surrogate of in vitro tox marker. Cells were lysed and treated with T5 exonuclease, cccDNA was then measured by dPCR on QuantStudio 12K Flex Real-Time PCR System (AB); 4 subarrays (256 through-holes) were used for each sample. […] Cells were treated with compounds at the indicated concentrations starting from day 3 post infection (patient-derived HBV, GT D). Fresh medium and compound was replenished every 2 day. Cells were harvested at day 10 pi; viral markers and albumin were measured from culture medium.
HBV from sera of CHB individuals were purified using OptiPrep™ (Axis-Shield, Norway) density gradient. Briefly, OptiPrep™ stock solution (60%) was diluted to 50% and 10% in PBS; equal volume of each solution was then added into SW41 tubes (BD Biosciences). Linear gradient was performed by placing the tubes on Gradient Master 108™ (Biocomp) at setting: 800, 25 rpm for 30″. Two hundred microliter (200 μl) of serum was overlaid on the top of gradient and samples were centrifuged at 100,000×g for 2 hours at 4° C. […] Fractions containing the peak of HBV DNA were pooled and used as virus inoculum for all infection experiments. All fractions were stored at −80° C. until used.
Fresh primary human hepatocytes (PXB-PHH) harvested from humanized mice (uPA/SCID mice)—herein called PHH—were obtained from PhoenixBio Co., Ltd (Japan).

The next test concerns liver-enriched genes. The test can be described thus: HLC maturation screening (microfluidic RT-qPCR of liver-enriched genes). It counts as cell-based, human. As to conditions: 96 liver-enriched genes. The protocol:
FIG. 6: Effect of MB-1 on the expression of 96 liver-enriched genes in HLC. HLC seeded on collagen I-coated 6-well plates were treated with MB-1 (1, 5, or 10 μM) in 1% DMSO, or 1% DMSO (each in triplicate) for 4 days. Cells were harvested and expression of 96 liver-enriched genes was analyzed by microfluidic RT-qPCR (Fluidigm).
HLC are seeded on collagen 1-coated 96-well plates in 100 μl medium D containing Matrigel 0.25 mg/ml. The next day (day 1), compound library was added to cells at a final concentration 4 μM in 1% DMSO. Fresh medium and compound was replenished 2 days later (day 3). At day 4, cells were harvested using Cells-to-Ct lysis kit (Ambion/Thermo Fisher), total RNAs were reverse-transcribed, and the resulting cDNA products were loaded into the microfluidic 96.96 Dynamic Array™ IFC and assayed against 32 liver-enriched genes on Biomark HD system (Fluidigm). The relative gene expression was calculated from delta Ct values using house-keeping gene (PPIA) in DMSO control as reference; delta Ct values were then converted to fold-change values. Compounds that increased liver-enriched gene expression in HLC ≥3-fold compared to DMSO control were further tested in dose-response (1, 5, 10, and 50 μM). The secondary screen was performed as above using 96-liver enriched genes. The top candidate (MB-1) was used for all experiments utilizing HLC. […]

Usually IC50 stands for the midpoint of a concentration-inhibition curve. With `O=C(NC(CO)CO)c1c[nH]c2ncc(C3CC3)nc12` [compound 7], the IC50 in the test with HBV DNA (read-out: HBV DNA IC50 (μM) Median, PHH, patient-derived HBV GT A, MOI 40, day 10 pi) was determined as 0.025 µM; in the test with HBV DNA (read-out: HBV DNA IC50 (μM) Median, PHH, patient-derived HBV GT B, MOI 40, day 10 pi), 0.023 µM; in the test with HBV DNA (read-out: HBV DNA IC50 (μM) Median, PHH, patient-derived HBV GT C, MOI 40, day 10 pi) it was 0.02 µM; with HBV DNA (read-out: HBV DNA IC50 (μM) Median, PHH, patient-derived HBV GT D, MOI 40, day 10 pi (Table 5)), 0.023 µM. The pIC50 with HBV DNA (read-out: HBV DNA IC50s, PHH, patient-derived HBV GT A-D) is 7.60 to 7.70.

Regarding `O=C(NCc1cccc(F)c1)c1cccc2[nH]c(-c3c(NC[C@@H](O)c4ccccc4)cc[nH]c3=O)nc12` [MB-1], in the test with liver-enriched genes, the “concentration at which mRNA expression of liver-enriched genes is enhanced” value was 55 µM.
